Assay results reported in patent publication US20110082130A1 (LIGAND PHARMACEUTICALS, INC., priority 2006, published 2011).

The molecules below were run against T1, chimeric human H3 receptor (Homo sapiens, UniProt Q9Y5N1) (assay: Chimeric human H3 receptor GTP binding assay (agonist-stimulated GTP-gamma35S binding, Example 7)). Conditions: Table I; P2 membranes of Sf9 cells, 1 μM histamine as agonist, Ki from IC50 by Cheng-Prusoff.
T1 construct: made in house; host or cells: Sf9 insect cells (baculovirus); P2 membrane preparation
T1 sequence (Q9Y5N1 with tags, fused parts or gaps): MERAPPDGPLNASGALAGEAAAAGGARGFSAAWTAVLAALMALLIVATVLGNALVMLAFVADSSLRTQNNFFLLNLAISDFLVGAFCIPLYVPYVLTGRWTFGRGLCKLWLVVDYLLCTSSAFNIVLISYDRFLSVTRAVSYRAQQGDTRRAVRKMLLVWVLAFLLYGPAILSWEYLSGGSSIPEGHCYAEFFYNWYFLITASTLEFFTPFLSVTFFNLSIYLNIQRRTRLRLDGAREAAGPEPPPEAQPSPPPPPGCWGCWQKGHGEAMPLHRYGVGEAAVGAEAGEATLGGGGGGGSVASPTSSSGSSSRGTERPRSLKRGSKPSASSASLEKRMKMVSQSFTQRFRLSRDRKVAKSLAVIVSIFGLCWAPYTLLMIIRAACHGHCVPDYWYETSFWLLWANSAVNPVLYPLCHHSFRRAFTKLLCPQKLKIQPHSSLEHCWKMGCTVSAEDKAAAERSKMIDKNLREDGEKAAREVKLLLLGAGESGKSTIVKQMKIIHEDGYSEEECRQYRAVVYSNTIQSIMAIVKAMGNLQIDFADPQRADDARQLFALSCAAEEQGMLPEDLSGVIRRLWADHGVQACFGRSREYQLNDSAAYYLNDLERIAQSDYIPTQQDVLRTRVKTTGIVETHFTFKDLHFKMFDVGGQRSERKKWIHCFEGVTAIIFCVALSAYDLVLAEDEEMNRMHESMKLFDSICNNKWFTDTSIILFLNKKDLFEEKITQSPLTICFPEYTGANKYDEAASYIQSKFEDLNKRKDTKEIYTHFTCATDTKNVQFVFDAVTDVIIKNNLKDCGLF
Type: biochemical
From the text: This Example illustrates a representative assay for evaluating agonist-stimulated GTP-gamma^35S binding (“GTP binding”) activity. […] This agonist-stimulated GTP binding activity can also be used to detect partial agonism mediated by antagonist compounds. A compound analyzed in this assay is referred to herein as a “test compound.”
Four independent baculoviral stocks (one directing the expression of the chimeric human H3 receptor and three directing the expression of each of the three subunits of a heterotrimeric G-protein) are used to infect a culture of Sf9 cells as described above. P2 membranes are prepared as described above, and agonist-stimulated GTP binding on the P2 membranes is assessed using histamine (Sigma Chemical Co., St. Louis, Mo.) as agonist in order to ascertain that the receptor/G-protein-alpha-beta-gamma combination(s) yield a functional response as measured by GTP binding. P2 membranes are resuspended by Dounce homogenization (tight pestle) in GTP binding assay buffer (50 mM Tris pH 7.4, 120 mM NaCl, 5 mM MgCl2, 2 mM EGTA, 1 mg/ml BSA, 0.2 mg/ml bacitracin, 0.02 mg/ml aprotinin, 0.01 mg/ml saponin, 10 μM GDP) and added to assay tubes at a concentration of 35 μg protein/reaction tube. After adding increasing doses of histamine at concentrations ranging from 10^−12 M to 10^−5 M, reactions are initiated by the addition of […] GTP-gamma^35S (PERKIN ELMER; Boston, Mass.) with a final assay volume of 0.20 ml. In competition experiments, non-radiolabeled test compounds are added to separate reactions at concentrations ranging from 10^−10 M to 10^−6 M along with 1 μM histamine to yield a final volume of 0.20 ml.
Neutral antagonists are antagonists that are substantially free of inherent agonist activity, and include those test compounds that reduce the histamine-stimulated GTP binding activity towards, but not below, baseline levels. In contrast, in the absence of added histamine, inverse agonists reduce the GTP binding activity of the receptor-containing membranes below baseline.
After a 60-min incubation at room temperature, reactions are terminated by vacuum filtration over WHATMAN GF/C filters (pre-soaked in wash buffer, 0.1% BSA) followed by washing with ice-cold wash buffer (50 mM Tris pH 7.4, 120 mM NaCl). The amount of receptor-bound (and thereby membrane-bound) GTP-gamma^35S is determined by measuring the filter-bound radioactivity, preferably by liquid scintillation spectrometry of the washed filters. Non-specific binding is determined in parallel assays including 10 μM unlabeled GTP-gammaS and typically represents less than 5 percent of total binding. Data is expressed as percent above basal (baseline). The results of GTP binding experiments are analyzed using SIGMAPLOT software (SPSS Inc., Chicago, Ill.). IC50 values are calculated by non-linear regression analysis of dose-response curves using Kaleidograph (Synergy Software, Reading, Pa.).
Alternatively the data is analyzed as follows. First, the average bound radioactivity from negative control wells (no agonist) is subtracted from the bound radioactivity detected for each of the other experimental wells. Second, average bound radioactivity is calculated for the positive control wells (agonist wells). Then, percent inhibition for each compound tested is calculated using the equation:
Calculated IC50 values are converted to K1 values by the Cheng-Prusoff correction (Cheng and Prusoff (1973) Biochem. Pharmacol. 22(23):3099-3108). Accordingly, the following equation: Ki=IC50/(1+[L]/EC50) is used, where [L] is the histamine concentration in the GTP binding assay, and EC50 is the concentration of histamine producing a 50% response, as determined by a dose-response analysis using concentrations of histamine ranging from 10^−10 M to 10^−6M. […]

Ki, < 1 µM:
Cc1noc(C)c1-c1ccc2c(c1)CCN(CC(=O)N1CCN(C3CCC3)CC1)C2 [Compound 68, 2-[2-(4-cyclobutylpiperazin-1-yl)-2-oxoethyl]-6-(3,5-dimethylisoxazol-4-yl)-1,2,3,4-tetrahydroisoquinoline]
N#Cc1ccc2c(c1)CCN(CC(=O)N1CCN(C3CCC3)CC1)C2 [Compound 69, 2-[2-(4-cyclobutylpiperazin-1-yl)-2-oxoethyl]-1,2,3,4-tetrahydroisoquinoline-6-carbonitrile]
O=C(CN1CCc2cc(-c3cncnc3)ccc2C1)N1CCN(C2CCC2)CC1 [Compound 70, 2-[2-(4-cyclobutylpiperazin-1-yl)-2-oxoethyl]-6-pyrimidin-5-yl-1,2,3,4-tetrahydrasoquinoline]
CC(=O)c1ccc(-c2ncc3c(n2)CCN(CC(=O)N2CCN(C4CCC4)CC2)C3)cc1 [Compound 71, 1-(4-{6-[2-(4-cyclobutylpiperazin-1-yl)-2-oxoethyl]-5,6,7,8-tetrahydropyrido[4,3-d]pyrimidin-2-yl}phenyl)ethanone]
CNC(=O)c1ccc(-c2ccc3c(c2)CCN(CC(=O)N2CCN(C4CCC4)CC2)C3)cc1 [Compound 72, 4-{2-[2-(4-cyclobutylpiperazin-1-yl)-2-oxoethyl]-1,2,3,4-tetrahydroisoquinolin-6-yl}-N-methylbenzamide]
CCC(=O)c1ccc2c(c1)CCN(CC(=O)N1CCN(C3CCC3)CC1)C2 [Compound 73, 1-{2-[2-(4-cyclobutylpiperazin-1-yl)-2-oxoethyl]-1,2,3,4-tetrahydroisoquinolin-6-yl}propan-1-one]
CS(=O)(=O)c1cccc(-c2ccc3c(c2)CCN(CC(=O)N2CCN(C4CCC4)CC2)C3)c1 [Compound 74, 2-[2-(4-cyclobutylpiperazin-1-yl)-2-oxoethyl]-6-[3-(methylsulfonyl)phenyl]-1,2,3,4-tetrahydroisoquinoline]
O=C(CN1CCc2cc(-c3ccncc3)ccc2C1)N1CCN(C2CCC2)CC1 [Compound 75, 2-[2-(4-cyclobutylpiperazin-1-yl)-2-oxoethyl]-6-pyridin-4-yl-1,2,3,4-tetrahydroisoquinoline]
COc1ccc(-c2ncc3c(n2)CCN(CC(=O)N2CCN(C4CCC4)CC2)C3)cc1 [Compound 76, 6-[2-(4-cyclobutylpiperazin-1-yl)-2-oxoethyl]-2-(4-methoxyphenyl)-5,6,7,8-tetrahydropyrido[4,3-d]pyrimidine]
COc1ccc2c(c1)CCN(CC(=O)N1CCN(C3CCC3)CC1)CC2 [Compound 77, 3-[2-(4-cyclobutylpiperazin-1-yl)-2-oxoethyl]-7-methoxy-2,3,4,5-tetrahydro-1H-3-benzazepine]
COc1ncnc2c1CCN(CC(=O)N1CCN(C3CCC3)CC1)CC2 [Compound 78, 7-[2-(4-cyclobutylpiperazin-1-yl)-2-oxoethyl]-4-methoxy-6,7,8,9-tetrahydro-5H-tetrahydro-5H-pyrimido[4,5-d]azepine]
CC(=O)c1ccc(-c2ncnc3c2CCN(CC(=O)N2CCN(C4CCC4)CC2)CC3)cc1 [Compound 79, 1-(4-{7-[2-(4-cyclobutylpiperazin-1-yl)-2-oxoethyl]-6,7,8,9-tetrahydro-5H-pyrimido[4,5-d]azepin-4-yl}phenyl)ethanone]
O=C(CN1CCc2cncnc2CC1)N1CCN(C2CCC2)CC1 [Compound 80, 7-[2-(4-cyclobutylpiperazin-1-yl)-2-oxoethyl]-6,7,8,9-tetrahydro-5H-pyrimido[4,5-d]azepine]
O=C(CN1CCn2c(Br)cnc2C1)N1CCN(C2CCC2)CC1 [Compound 81, 3-bromo-7-[2-(4-cyclobutylpiperazin-1-yl)-2-oxoethyl]-5,6,7,8-tetrahydroimidazo[1,2-a]pyrazine]
CC(=O)c1ccc(-c2cnc3n2CCN(CC(=O)N2CCN(C4CCC4)CC2)C3)cc1 [Compound 82, 1-(4-{7-[2-(4-cyclobutylpiperazin-1-yl)-2-oxoethyl]-5,6,7,8-tetrahydroimidazo[1,2-a]pyrazin-3-yl}phenyl)ethanone]
O=C(CN1CCn2ccnc2C1)N1CCN(C2CCC2)CC1 [Compound 83, 7-[2-(4-cyclobutylpiperazin-1-yl)-2-oxoethyl]-5,6,7,8-tetrahydroimidazo[1,2-a]pyrazine]

Same assay, conditions: Table II; "*" = Ki in assay of Example 7 less than 1 micromolar

Ki, < 1 µM:
CS(=O)(=O)c1cccc(-c2ccc3c(c2)CCN(CC(=O)N2CCN(C4CCC4)CC2)C3)c1 [Compound 84, 2-[2-(4-cyclobutylpiperazin-1-yl)-2-oxoethyl]-6-[3-(methylsulfonyl)phenyl]-1,2,3,4-tetrahydroisoquinoline]
CNC(=O)c1ccc2c(c1)CCN(CC(=O)N1CCN(C3CCC3)CC1)C2 [Compound 85, 2-[2-(4-cyclobutylpiperazin-1-yl)-2-oxoethyl]-N-methyl-1,2,3,4-tetrahydroisoquinoline-6-carboxamide]
CCOC(=O)c1ccc2c(c1)CCN(CC(=O)N1CCN(C3CCC3)CC1)C2 [Compound 86, ethyl 2-[2-(4-cyclobutylpiperazin-1-yl)-2-oxoethyl]-1,2,3,4-tetrahydroisoquinoline-6-carboxylate]
CC1CCCN1C(=O)c1ccc2c(c1)CCN(CC(=O)N1CCN(C3CCC3)CC1)C2 (stereo not drawn) [Compound 87, 2-[2-(4-cyclobutylpiperazin-1-yl)-2-oxoethyl]-6-[(2-methylpyrrolidin-1-yl)carbonyl]-1,2,3,4-tetrahydroisoquinoline]
O=C(NC1CCCC1)c1ccc2c(c1)CCN(CC(=O)N1CCN(C3CCC3)CC1)C2 [Compound 88, 2-[2-(4-cyclobutylpiperazin-1-yl)-2-oxoethyl]-N-cyclopentyl-1,2,3,4-tetrahydroisoquinoline-6-carboxamide]
O=C(CN1CCc2cc(C(=O)N3CCCC3)ccc2C1)N1CCN(C2CCC2)CC1 [Compound 89, 2-[2-(4-cyclobutylpiperazin-1-yl)-2-oxoethyl]-6-(pyrrolidin-1-ylcarbonyl)-1,2,3,4-tetrahydroisoquinoline]
O=C(CN1CCc2c(cnn2-c2ccc(Br)cc2)C1)N1CCN(C2CCC2)CC1 [Compound 90, 1-(4-bromophenyl)-5-[2-(4-cyclobutylpiperazin-1-yl)-2-oxoethyl]-4,5,6,7-tetrahydro-1H-pyrazolo[4,3-c]pyridine]
O=C(CN1CCc2n[nH]cc2C1)N1CCN(C2CCC2)CC1 [Compound 91, 5-[2-(4-cyclobutylpiperazin-1-yl)-2-oxoethyl]-4,5,6,7-tetrahydro-2H-pyrazolo[4,3-c]pyridine]
CC(=O)c1ccc(-n2ncc3c2CCN(CC(=O)N2CCN(C4CCC4)CC2)C3)cc1 [Compound 92, 1-(4-{5-[2-(4-cyclobutylpiperazin-1-yl)-2-oxoethyl]-4,5,6,7-tetrahydro-1H-pyrazolo[4,3-c]pyridin-1-yl}phenyl)ethanone]
N#Cc1ccc(-n2ncc3c2CCN(CC(=O)N2CCN(C4CCC4)CC2)C3)cc1 [Compound 93, 4-{5-[2-(4-cyclobutylpiperazin-1-yl)-2-oxoethyl]-4,5,6,7-tetrahydro-1H-pyrazolo[4,3-c]pyridin-1-yl}benzonitrile]
CC(=O)c1ccc(-n2cc3c(n2)CCN(CC(=O)N2CCN(C4CCC4)CC2)C3)cc1 [Compound 94, 1-(4-{5-[2-(4-cyclobutylpiperazin-1-yl)-2-oxoethyl]-4,5,6,7-tetrahydro-2H-pyrazolo[4,3-c]pyridin-2-yl}phenyl)ethanone]
